The text below walks through data of ChEMBL document CHEMBL1150275, “Pharmacological and pharmacokinetic characterization of 2-piperazine-alpha-isopropyl benzylamine derivatives as melanocortin-4 receptor antagonists” (Bioorg Med Chem, 2008).

Usually Kp stands for the ratio of the level in a tissue or fluid to that in plasma or blood. What is called Cmax is the maximum level reached in the sampled fluid or tissue. As a reminder, the logD is lipophilicity at a set pH, counting ionised and neutral species. Low values mean lower lipophilicity, high ones higher lipophilicity. The term bioavailability denotes dose-corrected exposure relative to a reference, in per cent. Read a low bioavailability as little systemic uptake. Broadly, the Tmax is the time at which the peak concentration occurs. By Papp is commonly meant a coefficient for how fast a substance crosses the barrier. As a reminder, the pKa is the pH at which an ionisable group is half protonated. Higher therefore signals a weaker acid or stronger base.

A short description of data set [1]: Volume of distribution in mouse at 5 mg/kg, iv and 10 mg/kg, po. To be noted: in vivo. The format is ADME, organism-based.
Data set [2] can be described thus: Drug level in mouse brain at 5 mg/kg, iv after 1 hr. The format is ADME, organism-based. Also noted: dose 5 mg/kg, route intravenous. The settings on record: read-out: Drug uptake.
Data set [3] can be described thus: Ratio of drug level in brain to plasma in mouse at 5 mg/kg, iv after 1 hr. Also noted: dose 5 mg/kg, route intravenous. It counts as ADME, organism-based.
Data set [4] in a line: Cmax in mouse at 5 mg/kg, iv and 10 mg/kg, po. To be noted: in vivo. It counts as ADME, organism-based.
Data set [5] is described as follows: physchem. The settings on record: buffer, pH 7.4.
Data set [6] can be described thus: Oral bioavailability in mouse at 10 mg/kg. The settings on record: in vivo. The format is ADME, organism-based.
A short description of data set [7]: Ratio of drug level in brain to plasma in mouse at 5 mg/kg, iv after 4 hrs. The format is ADME, organism-based. Also on record: dose 5 mg/kg, route intravenous.
Data set [8] can be described thus: Drug level in mouse brain at 5 mg/kg, iv after 4 hrs. Also on record: dose 5 mg/kg, route intravenous. The format is ADME, organism-based. To be noted: read-out: Drug uptake.
The nature of data set [9]: Tmax in mouse at 5 mg/kg, iv and 10 mg/kg, po. To be noted: in vivo. The format is ADME, organism-based.
Data set [10] is described as follows: AUC in mouse at 10 mg/kg, po. Also noted: dose 10 mg/kg, route oral. The format is ADME, organism-based. The settings on record: plasma.
Data set [11] relates to Caco-2. The data set can be described thus: Apparent permeability across human Caco-2 cells. The format is ADME, cell-based. (In general: Caco-2 cells form a polarised layer with tight junctions and transporters.)
A short description of data set [12]: Drug level in LLC tumor bearing C57BL/6J mouse brain at 20 mg/kg, po twice daily after 24 hrs on day 4 of administration measured 14 hrs after last dose. It counts as ADME, organism-based. Also on record: dose 20 mg/kg, route oral.
Data set [13] is described as follows: Drug level in LLC tumor bearing C57BL/6J mouse plasma at 20 mg/kg, po twice daily after 24 hrs. It counts as ADME, organism-based. Also noted: dose 20 mg/kg, route oral.
The test system of data set [14] is Brain. Put plainly: AUC in rat brain at 10 mg/kg, po. It counts as ADME, organism-based. Also noted: dose 10 mg/kg, route oral. To be noted: in vivo.
Data set [15] is described as follows: Cmax in mouse brain at 5 mg/kg, iv and 10 mg/kg, po. It counts as ADME, organism-based.
Data set [16] in a line: Drug level in LLC tumor bearing C57BL/6J mouse brain at 20 mg/kg, po twice daily after 12 hrs on day of administration. It counts as ADME, organism-based. Also noted: dose 20 mg/kg, route oral.
The nature of data set [17]: Ratio of drug level in brain to plasma in mouse at 10 mg/kg, po after 4 hrs. It counts as ADME, organism-based. Also noted: dose 10 mg/kg, route oral.
Data set [18] is described as follows: Drug level in LLC tumor bearing C57BL/6J mouse brain at 20 mg/kg, po twice daily after 2 hrs on day 4 of administration. It counts as ADME, organism-based. Also on record: dose 20 mg/kg, route oral.
Data set [19] in a line: Ratio of AUC in brain to plasma in mouse at 5 mg/kg, iv and 10 mg/kg, po. The format is ADME, organism-based.
Data set [20] is described as follows: Drug level in LLC tumor bearing C57BL/6J mouse plasma at 20 mg/kg, po twice daily after 2 hrs on day 1 of administration. It counts as ADME, organism-based. Also on record: dose 20 mg/kg, route oral.
Data set [21] in a line: Drug level in LLC tumor bearing C57BL/6J mouse plasma at 20 mg/kg, po twice daily after 2 hrs on day 4 of administration. It counts as ADME, organism-based. Also on record: dose 20 mg/kg, route oral.
Data set [22] is described as follows: Drug level in mouse brain at 10 mg/kg, po after 1 hr. The format is ADME, organism-based. Also noted: dose 10 mg/kg, route oral.
The nature of data set [23]: Ratio of drug level in brain to plasma in mouse at 10 mg/kg, po after 1 hr. It counts as ADME, organism-based. Also noted: dose 10 mg/kg, route oral. To be noted: brain and plasma.
The nature of data set [24]: Ratio of Cmax in brain to plasma in mouse at 5 mg/kg, iv and 10 mg/kg, po. The format is ADME, organism-based.
The test system of data set [25] is Brain. The data set can be described thus: Drug level in LLC tumor bearing C57BL/6J mouse brain at 5 mg/kg, po. The format is ADME, organism-based. Also on record: dose 5 mg/kg, route oral. To be noted: in vivo.
A short description of data set [26]: Dissociation constant, pKa of the compound. The format is physicochemical.
The nature of data set [27]: Drug level in LLC tumor bearing C57BL/6J mouse plasma at 20 mg/kg, po twice daily after 24 hrs on day 4 of administration measured 14 hrs after last dose. It counts as ADME, organism-based. Also on record: dose 20 mg/kg, route oral.
Data set [28] can be described thus: Drug level in LLC tumor bearing C57BL/6J mouse plasma at 20 mg/kg, po twice daily after 12 hrs on day 1 of administration. The format is ADME, organism-based. Also on record: dose 20 mg/kg, route oral.
A short description of data set [29]: Tmax in mouse brain at 5 mg/kg, iv and 10 mg/kg, po. The format is ADME, organism-based.
Data set [30] in a line: Drug level in LLC tumor bearing C57BL/6J mouse brain at 20 mg/kg, po twice daily after 12 hrs on day 1 of administration. Also on record: dose 20 mg/kg, route oral. The format is ADME, organism-based.
Data set [31] in a line: Drug level in mouse brain at 10 mg/kg, po after 4 hrs. The format is ADME, organism-based. Also noted: dose 10 mg/kg, route oral. The settings on record: read-out: Drug uptake.
A short description of data set [32]: Drug level in LLC tumor bearing C57BL/6J mouse brain at 20 mg/kg, po twice daily after 2 hrs on day 1 of administration. It counts as ADME, organism-based. Also noted: dose 20 mg/kg, route oral.
A short description of data set [33]: Drug level in LLC tumor bearing C57BL/6J mouse brain at 20 mg/kg, po twice daily after 24 hrs. It counts as ADME, organism-based. Also on record: dose 20 mg/kg, route oral.
Data set [34] can be described thus: Drug level in rat brain at 10 mg/kg, po after 6 hrs. It counts as ADME, organism-based. Also noted: dose 10 mg/kg, route oral. The settings on record: read-out: Drug uptake.
Data set [35] can be described thus: Drug level in LLC tumor bearing C57BL/6J mouse plasma at 20 mg/kg, po twice daily after 12 hrs on day 4 of administration. Also on record: dose 20 mg/kg, route oral. The format is ADME, organism-based.
Data set [36] relates to Brain. The data set can be described thus: AUC in mouse brain at 5 mg/kg, iv and 10 mg/kg, po. It counts as ADME, organism-based. The settings on record: in vivo.

As for `CNCC(=O)N[C@H](c1cc(C)ccc1N1CCN(C(=O)[C@H](C)Cc2ccc(Cl)cc2F)CC1)C(C)C`, the Vd in data set [1] came out at 3 L/kg. In data set [2], the concentration at 1 h is 59 ng/g. Further, the Kp at 1 h in [3] is 0.1. In addition, the Cmax in data set [4] amounted to 632 ng/mL. Moreover, the logD in data set [5] is 4. The bioavailability in data set [6] is 30%. Besides, in data set [7], the Kp at 4 h worked out at 0.2. Further, the concentration at 4 h in data set [8] came to 42 ng/g. Moreover, the time to peak (Tmax) in [9] was found to be 120 min. In data set [10], this compound gave an AUC of 2290 ng·h/mL. The Papp in [11] was 8 ×10⁻⁶ cm/s.
As to `Cc1ccc(N2CCN(C(=O)[C@H](C)Cc3ccc(Cl)cc3)CC2)c([C@@H](NC(=O)CCN(C)C)C(C)C)c1`, the figures for the concentration at 14 h in data set [12] and in data set [27] were 4.5 ng/g and 22 ng/mL, respectively. The Vd in data set [1] came to 4.1 L/kg. In addition, the concentration at 24 h in data set [13] came out at 140 ng/mL; in [33] it was 11 ng/g. The partition ratio (Kp) at 1 h in data set [3] and in data set [23] was 0.1 each time. Further, the AUC in [14] is 254 ng·h/g; in [36] it was 367 ng·h/g. For the same compound, the Cmax in data set [15] came out at 91 ng/g. In [5], the logD was determined as 3.4. Moreover, the concentration at 12 h in [16] stood at 25 ng/g; in data set [28], 430 ng/mL; in data set [30] it was 74 ng/g; in data set [35], 405 ng/mL. The Kp at 4 h in data set [7] and in data set [17] was 0.1 each time. Moreover, the concentration at 2 h in data set [18] was 36 ng/g; in [20] it was 360 ng/mL; in data set [21], 460 ng/mL; in [32] it was 27 ng/g. In addition, the partition ratio (Kp) in [19] amounted to 0.15; in [24], 0.1. This compound also returned a concentration at 1 h in data set [22] of 19 ng/g. In data set [25], this compound gave a Drug uptake of 2 ng/mL. The pKa in data set [26] was 8.9. Further, in data set [29], the Tmax is 18 min. Moreover, in data set [31], the concentration at 4 h is 18 ng/g. Also, in data set [34], the concentration at 6 h came out at 41 ng/g. For the same compound, the Papp in data set [11] is reported as 41 ×10⁻⁶ cm/s.
In turn, `COc1cc(Cl)ccc1C[C@@H](C)C(=O)N1CCN(c2ccc(Cl)cc2[C@@H](NC(=O)[C@@H](C)N)C(C)C)CC1` registered a Vd in data set [1] of 16 L/kg. Moreover, the concentration at 1 h in [2] stood at 95 ng/g. Further, in [3], the Kp at 1 h is 0.4. Also, the highest level in data set [4] (Cmax) was 143 ng/mL. The compound also returned a logD in data set [5] of 4.5. In [6], this compound came in with a bioavailability of 16%. Besides, the Kp at 4 h in data set [7] was 1. In addition, in [8], the concentration at 4 h came to 59 ng/g. Moreover, the time to peak (Tmax) in [9] came out at 15 min. This compound gave an AUC in [10] of 397 ng·h/mL. For the same compound, the Papp in data set [11] amounted to 3 ×10⁻⁶ cm/s.
In data set [1], `CNCC(=O)N[C@H](c1cccc(F)c1N1CCN(C(=O)[C@H](C)Cc2ccc(Cl)cc2)CC1)C(C)C` yielded a Vd of 19 L/kg. Also, in data set [2], the concentration at 1 h amounted to 231 ng/g. Moreover, in data set [3], the Kp at 1 h came to 0.6. In addition, the Cmax in [4] was determined as 165 ng/mL. This compound showed a pH-dependent lipophilicity (logD) in [5] of 2.4. The same compound displayed a bioavailability in data set [6] of 21%. For the same compound, the Kp at 4 h in [7] worked out at 1.1. Also, the concentration at 4 h in [8] worked out at 126 ng/g. In data set [9], the Tmax was determined as 30 min. Also, the AUC in data set [10] was 813 ng·h/mL. Further, in data set [11], the Papp is listed as 1 ×10⁻⁶ cm/s.
